Among the test systems are A549; ACHN; DLD-1; DMS-114; HOP-62; LXFL 529; M14; M19-MEL; OVCAR-8; SF-268; SR; SW-620; UO-31; DMS-273; HCT-15; Hs-578T; MCF7; MDA-MB-435; MDA-N; TK-10.
Common to all, as to test: NCI-60 cell line screen, 48 h

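These data come from cells grown in 96-well plates and exposed to compound for 48 hours at five concentrations. GI50 is the concentration that inhibits growth by half.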 Activity calls are given as the source filed them. Cut-off read from the data, not from the text of the source: active = GI50 up to about 1.1 µM and inactive = higher.

Turning to `COc1ccc(N2C(=O)/C(=C(\C)c3cc4ccccc4oc3=O)N=C2c2cc([N+](=O)[O-])ccc2Cl)cc1`, the GI50 in the assay on A549 is 34.9 µM (inactive); with ACHN, 32.1 µM (inactive); in the assay on DLD-1, 54.7 µM (inactive); in the assay on DMS-114, 24.2 µM (inactive); with HOP-62, > 100 µM (inactive); in the assay with LXFL 529 it was 29.9 µM (inactive). Further, the GI50 is 23.6 µM (inactive) in the assay with M14; 42.1 µM (inactive) in the assay on M19-MEL; > 100 µM (inactive) in the assay on OVCAR-8; 28.7 µM (inactive) in the assay on SF-268; 34.4 µM (inactive) in the assay with SR; 33.9 µM (inactive) in the assay with SW-620. For the same compound, the GI50 in the assay on UO-31 was 46.9 µM (inactive).
Consider `C/C=C1\C[C@@H]2C(OC)Nc3cc(O)c(OC)cc3C(=O)N2C1` (stereo partly specified), for which the GI50 in the assay with A549 was < 0.01 µM (active); with ACHN, 0.00179 µM (active); in the assay with DLD-1 it was 0.00319 µM (active); in the assay with DMS-114, 0.00118 µM (active); in the assay on DMS-273, 0.00129 µM (active); in the assay with HCT-15, below 0.01 µM. For the same compound, the GI50 is < 0.01 µM (active) with HOP-62; 0.0142 µM (active) in the assay on Hs-578T; 0.00301 µM (active) with LXFL 529; 0.00461 µM (active) with M14; 0.00612 µM (active) in the assay on M19-MEL; < 0.01 µM (active) with MCF7. In addition, the GI50 with MDA-MB-435 was < 0.01 µM (active); in the assay with MDA-N it was < 0.01 µM (active); in the assay with OVCAR-8, < 0.01 µM (active); in the assay on SF-268, < 0.01 µM (active); with SR it was 0.000431 µM (active); with SW-620, < 0.01 µM (active). For the same compound, the GI50 is < 0.0171 µM (active) with TK-10 and < 0.01 µM (active) in the assay on UO-31.
On to `CN1COCN/C1=N/C#N`, for which the GI50 with A549 is > 100 µM (inactive); with ACHN, > 100 µM (inactive); in the assay on DLD-1 it was > 100 µM (inactive); in the assay with DMS-114 it was > 100 µM (inactive); in the assay with HCT-15, above 100 µM; in the assay on HOP-62, > 100 µM (inactive). In addition, the GI50 with LXFL 529 is > 100 µM (inactive); in the assay on M14, > 100 µM (inactive); in the assay with M19-MEL it was > 100 µM (inactive); in the assay on OVCAR-8 it was > 10 µM (inactive); in the assay with SF-268, > 100 µM (inactive); in the assay with SW-620, > 100 µM (inactive). For the same compound, the GI50 in the assay on UO-31 was > 100 µM (inactive).

For the origin of these results see ChEMBL document CHEMBL1201862, “PubChem BioAssay data set” (2004).
